# Measurements: ChEMBL document CHEMBL1201862, “PubChem BioAssay data set” (2004)
# Calls of active or inactive are those of the source.
# Experiments:
# [1] = molecular target: Genome polyprotein (dengue virus type 2, UniProt P29990); test: flavivirus cap methylation enzyme inhibition – biochemical, confirmation dose response, primary screen (AID 588689); assay type: functional
# [2] = tested on: Vero; test: viability of Vero cells under compound – cytotoxicity control for flavivirus capping enzyme inhibitors (AID 588742); assay type: functional; details: Chlorocebus sabaeus
# [3] = molecular target: Major prion protein (Homo sapiens, UniProt P04156); assay type: functional, cell-based
# [4] = cells
# [5] = blockers of HIV-1 ZM109 envelope-driven cell-cell fusion – HeLa effector, CEM target cells, luciferase, cherry-pick, dose response (AID 652058); assay type: functional, cell-based;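 also: luciferase signal from HIV-1 Env mediated cell-cell fusion of effector and target cells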
# [6] = HIV-1 AD8 envelope cell-cell fusion blockers – cherry-pick, dose response (AID 652062); assay type: functional, cell-based;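 also: luciferase signal from cell-cell fusion driven by HIV-1 clade B AD8 Env; potency is for inhibitors of fusion seen as a drop in luminescence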
# [7] = molecular target: T1, Replicative DNA helicase DnaB (Mycobacterium tuberculosis, UniProt P9WMR3); test: DnaB intein splicing inhibitors, dose response, biochemical, cell-free fluorescence (AID 449749); assay type: functional
# T1 sequence (P9WMR3 whole entry): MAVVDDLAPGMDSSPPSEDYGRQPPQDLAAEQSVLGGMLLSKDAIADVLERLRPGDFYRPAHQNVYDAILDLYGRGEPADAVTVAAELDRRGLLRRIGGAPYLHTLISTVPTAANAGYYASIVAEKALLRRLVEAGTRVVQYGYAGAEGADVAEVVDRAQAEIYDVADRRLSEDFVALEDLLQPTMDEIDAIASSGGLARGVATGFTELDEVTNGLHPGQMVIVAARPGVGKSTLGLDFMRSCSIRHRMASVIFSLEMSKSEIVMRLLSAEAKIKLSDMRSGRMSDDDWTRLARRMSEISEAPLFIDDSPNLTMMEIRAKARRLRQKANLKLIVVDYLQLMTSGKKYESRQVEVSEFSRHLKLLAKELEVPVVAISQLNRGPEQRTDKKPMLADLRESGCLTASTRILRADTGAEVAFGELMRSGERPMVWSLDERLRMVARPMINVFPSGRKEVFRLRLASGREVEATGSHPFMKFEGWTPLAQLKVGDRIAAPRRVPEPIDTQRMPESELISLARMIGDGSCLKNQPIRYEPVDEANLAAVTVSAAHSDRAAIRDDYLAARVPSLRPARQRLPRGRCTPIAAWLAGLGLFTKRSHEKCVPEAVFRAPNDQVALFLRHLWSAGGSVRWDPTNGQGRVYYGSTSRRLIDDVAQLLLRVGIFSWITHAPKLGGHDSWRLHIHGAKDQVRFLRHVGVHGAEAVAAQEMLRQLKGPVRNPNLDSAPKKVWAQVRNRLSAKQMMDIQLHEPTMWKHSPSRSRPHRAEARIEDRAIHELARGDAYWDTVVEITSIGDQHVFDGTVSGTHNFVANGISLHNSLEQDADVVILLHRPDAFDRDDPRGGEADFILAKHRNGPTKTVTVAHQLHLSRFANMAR
# [8] = molecular target: T2, Protein RecA (Mycobacterium tuberculosis, UniProt P9WHJ3); test: Fluorescence Cell-Free Homogeneous Dose Retest to Identify Inhibitors of RecA-Intein Splicing Activity. [Related pubchem assays (depositor defined):AID2097, AID2223, AID489010, AID492950]; assay type: functional
# T2 sequence (P9WHJ3 whole entry): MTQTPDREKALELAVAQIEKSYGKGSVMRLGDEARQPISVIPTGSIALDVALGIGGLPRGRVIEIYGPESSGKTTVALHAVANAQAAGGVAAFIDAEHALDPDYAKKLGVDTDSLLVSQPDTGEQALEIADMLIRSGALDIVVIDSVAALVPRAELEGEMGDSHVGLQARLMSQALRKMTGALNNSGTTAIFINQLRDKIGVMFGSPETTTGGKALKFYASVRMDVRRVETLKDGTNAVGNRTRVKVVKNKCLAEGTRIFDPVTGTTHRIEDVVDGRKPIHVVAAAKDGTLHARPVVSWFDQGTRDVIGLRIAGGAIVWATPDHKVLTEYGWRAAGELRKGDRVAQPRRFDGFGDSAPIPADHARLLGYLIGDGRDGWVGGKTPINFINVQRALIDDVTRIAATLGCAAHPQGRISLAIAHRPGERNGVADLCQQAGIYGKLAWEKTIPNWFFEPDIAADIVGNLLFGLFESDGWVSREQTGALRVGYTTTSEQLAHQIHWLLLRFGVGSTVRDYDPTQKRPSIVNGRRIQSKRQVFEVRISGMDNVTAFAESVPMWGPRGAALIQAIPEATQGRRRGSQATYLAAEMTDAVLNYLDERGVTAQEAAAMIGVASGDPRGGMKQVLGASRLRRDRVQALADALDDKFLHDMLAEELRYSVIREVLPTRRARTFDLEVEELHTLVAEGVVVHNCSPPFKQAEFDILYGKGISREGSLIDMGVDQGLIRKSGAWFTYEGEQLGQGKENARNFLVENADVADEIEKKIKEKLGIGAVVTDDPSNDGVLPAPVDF
# [9] = molecular target: Glucose-6-phosphate 1-dehydrogenase (Homo sapiens, UniProt P11413); test: inhibition of Homo sapiens G6PD, dose series – biochemical, fluorescence, selectivity assay for P. falciparum G6PD inhibitor project, dose response (AID 504792); assay type: functional
# Chain of Glucose-6-phosphate 1-dehydrogenase (P11413 whole entry): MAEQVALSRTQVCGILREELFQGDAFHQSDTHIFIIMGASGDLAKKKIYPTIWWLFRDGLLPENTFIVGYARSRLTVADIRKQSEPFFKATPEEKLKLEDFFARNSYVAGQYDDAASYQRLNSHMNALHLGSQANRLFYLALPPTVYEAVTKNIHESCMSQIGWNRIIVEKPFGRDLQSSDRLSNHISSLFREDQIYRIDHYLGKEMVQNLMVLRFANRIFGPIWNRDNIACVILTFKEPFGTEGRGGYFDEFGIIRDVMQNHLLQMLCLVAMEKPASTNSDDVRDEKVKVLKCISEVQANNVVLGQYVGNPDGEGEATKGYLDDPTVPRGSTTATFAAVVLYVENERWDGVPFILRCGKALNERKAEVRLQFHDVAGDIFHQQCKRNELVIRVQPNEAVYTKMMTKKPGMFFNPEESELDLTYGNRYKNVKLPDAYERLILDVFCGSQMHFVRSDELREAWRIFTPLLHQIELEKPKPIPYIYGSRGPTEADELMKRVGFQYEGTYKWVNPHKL
# [10] = molecular target: DNA dC->dU-editing enzyme APOBEC-3A (Homo sapiens, UniProt P31941); test: Dose Response confirmation of small molecule APOBEC3A DNA Deaminase Inhibitors via a fluorescence-based single-stranded DNA deaminase assay. [Related pubchem assays (depositor defined):AID493011, AID493024]; assay type: functional
# Chain of DNA dC->dU-editing enzyme APOBEC-3A (P31941 whole entry): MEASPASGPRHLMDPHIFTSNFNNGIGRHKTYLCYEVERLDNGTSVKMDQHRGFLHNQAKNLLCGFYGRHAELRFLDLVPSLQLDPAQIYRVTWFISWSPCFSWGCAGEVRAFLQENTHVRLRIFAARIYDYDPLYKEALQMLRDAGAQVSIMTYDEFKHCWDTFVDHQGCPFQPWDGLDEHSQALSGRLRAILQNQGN
# [11] = molecular target: DNA dC->dU-editing enzyme APOBEC-3G (Homo sapiens, UniProt Q9HC16); assay type: functional;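 also: Dose-response counterscreen measuring inhibition of APOBEC3G DNA deaminase activity, run while confirming APOBEC3A inhibitors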
# Chain of DNA dC->dU-editing enzyme APOBEC-3G (Q9HC16 whole entry, the tested form may be a part): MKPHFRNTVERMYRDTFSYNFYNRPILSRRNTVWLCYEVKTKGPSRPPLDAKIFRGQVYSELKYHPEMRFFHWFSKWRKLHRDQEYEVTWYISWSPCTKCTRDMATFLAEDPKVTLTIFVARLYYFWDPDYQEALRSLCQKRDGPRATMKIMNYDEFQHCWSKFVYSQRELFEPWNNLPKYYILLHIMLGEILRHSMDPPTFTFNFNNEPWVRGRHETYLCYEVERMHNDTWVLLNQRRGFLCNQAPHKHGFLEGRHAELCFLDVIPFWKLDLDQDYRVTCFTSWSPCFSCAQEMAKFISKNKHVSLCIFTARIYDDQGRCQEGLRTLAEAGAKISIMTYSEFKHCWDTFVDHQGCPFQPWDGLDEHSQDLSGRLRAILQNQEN
# [12] = molecular target: T3, Carboxy-terminal domain RNA polymerase II polypeptide A small phosphatase 1 (Homo sapiens, UniProt Q9GZU7); test: CTDSP1 inhibitors, concentration-response, biochemical, absorbance readout, ultra-high-throughput screen actives (AID 540297); assay type: functional
# T3 sequence (Q9GZU7 whole entry): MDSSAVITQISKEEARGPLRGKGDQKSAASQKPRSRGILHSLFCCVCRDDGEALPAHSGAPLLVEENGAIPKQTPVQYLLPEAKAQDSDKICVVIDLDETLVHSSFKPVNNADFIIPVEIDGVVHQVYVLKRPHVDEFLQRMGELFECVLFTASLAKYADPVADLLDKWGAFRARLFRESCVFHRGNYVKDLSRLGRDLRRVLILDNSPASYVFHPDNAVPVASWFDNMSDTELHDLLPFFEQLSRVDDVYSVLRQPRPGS
# [13] = blockers of HIV-1 envelope-mediated cell-cell fusion – cherry-pick, dose response (AID 652057); assay type: functional, cell-based
# [14] = molecular target: Induced myeloid leukemia cell differentiation protein Mcl-1 (Homo sapiens, UniProt Q07820); assay type: functional
# Chain of Induced myeloid leukemia cell differentiation protein Mcl-1 (Q07820 whole entry): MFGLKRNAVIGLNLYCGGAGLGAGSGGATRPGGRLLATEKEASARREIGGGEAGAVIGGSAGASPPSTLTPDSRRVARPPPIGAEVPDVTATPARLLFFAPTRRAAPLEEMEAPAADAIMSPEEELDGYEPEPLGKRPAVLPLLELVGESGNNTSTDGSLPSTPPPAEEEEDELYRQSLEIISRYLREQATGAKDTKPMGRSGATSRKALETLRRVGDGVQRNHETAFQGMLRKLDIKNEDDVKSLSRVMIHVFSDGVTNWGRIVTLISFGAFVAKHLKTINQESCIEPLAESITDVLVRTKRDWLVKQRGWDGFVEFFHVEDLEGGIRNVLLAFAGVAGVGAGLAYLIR
# [15] = molecular target: Large T antigen (Simian virus 40, UniProt P03070); assay type: functional, Betapolyomavirus macacae;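 also: Confirmatory-stage PubChem screen for compounds that inhibit SV40 T antigen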
# Chain of Large T antigen (P03070 whole entry): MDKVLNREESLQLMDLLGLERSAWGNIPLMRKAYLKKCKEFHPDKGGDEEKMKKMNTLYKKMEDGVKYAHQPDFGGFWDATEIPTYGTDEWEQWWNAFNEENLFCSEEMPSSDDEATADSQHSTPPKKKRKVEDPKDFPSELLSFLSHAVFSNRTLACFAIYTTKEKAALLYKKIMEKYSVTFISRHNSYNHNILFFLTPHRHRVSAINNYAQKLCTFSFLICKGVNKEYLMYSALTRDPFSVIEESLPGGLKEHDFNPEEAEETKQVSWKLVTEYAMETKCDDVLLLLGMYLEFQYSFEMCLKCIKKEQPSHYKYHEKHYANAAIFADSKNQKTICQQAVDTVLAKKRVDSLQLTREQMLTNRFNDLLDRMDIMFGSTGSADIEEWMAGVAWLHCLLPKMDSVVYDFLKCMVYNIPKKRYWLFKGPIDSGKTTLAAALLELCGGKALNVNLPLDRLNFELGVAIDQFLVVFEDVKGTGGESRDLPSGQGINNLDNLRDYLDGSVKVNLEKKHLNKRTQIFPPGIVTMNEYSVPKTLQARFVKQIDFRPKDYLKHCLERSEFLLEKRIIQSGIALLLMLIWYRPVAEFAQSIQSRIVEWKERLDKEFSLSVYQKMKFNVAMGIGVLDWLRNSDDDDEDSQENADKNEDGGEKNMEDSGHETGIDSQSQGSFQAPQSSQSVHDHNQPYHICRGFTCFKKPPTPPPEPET
# [16] = toxicity toward HepG2 liver cells – cell-based, plate reader, cherry-pick, antagonist series, cytotoxicity control, dose response (AID 743416); assay type: functional
# [17] = blockers of bursicon-stimulated LGR2 cAMP reporter – cell-based, HEK293, CRE-luciferase reporter, cherry pick, set 2, dose response (AID 743343); assay type: functional;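 also: transfected cells were stimulated with diluted bursicon conditioned medium after compound addition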
# [18] = A549 cell cytotoxicity, dose response, cytotoxicity control, plate reader, cherry-pick, antagonist series (AID 743412); assay type: functional, cell-based
# [19] = NIH-3T3 fibroblast cytotoxicity, dose response, cytotoxicity control, cell-based, fluorescence, Alamar Blue, secondary assay (AID 2327); assay type: functional;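 also: NIH-3T3 mouse fibroblasts cultured with fluconazole at 8 µg/mL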
# [20] = fluconazole-exposed Candida albicans growth modulators – fluorescence, retest, confirmation (AID 2467); assay type: functional, cell-based
# [21] = molecular target: T4, Apoptotic protease-activating factor 1 (Homo sapiens, UniProt O14727); assay type: functional
# T4 sequence (O14727 whole entry): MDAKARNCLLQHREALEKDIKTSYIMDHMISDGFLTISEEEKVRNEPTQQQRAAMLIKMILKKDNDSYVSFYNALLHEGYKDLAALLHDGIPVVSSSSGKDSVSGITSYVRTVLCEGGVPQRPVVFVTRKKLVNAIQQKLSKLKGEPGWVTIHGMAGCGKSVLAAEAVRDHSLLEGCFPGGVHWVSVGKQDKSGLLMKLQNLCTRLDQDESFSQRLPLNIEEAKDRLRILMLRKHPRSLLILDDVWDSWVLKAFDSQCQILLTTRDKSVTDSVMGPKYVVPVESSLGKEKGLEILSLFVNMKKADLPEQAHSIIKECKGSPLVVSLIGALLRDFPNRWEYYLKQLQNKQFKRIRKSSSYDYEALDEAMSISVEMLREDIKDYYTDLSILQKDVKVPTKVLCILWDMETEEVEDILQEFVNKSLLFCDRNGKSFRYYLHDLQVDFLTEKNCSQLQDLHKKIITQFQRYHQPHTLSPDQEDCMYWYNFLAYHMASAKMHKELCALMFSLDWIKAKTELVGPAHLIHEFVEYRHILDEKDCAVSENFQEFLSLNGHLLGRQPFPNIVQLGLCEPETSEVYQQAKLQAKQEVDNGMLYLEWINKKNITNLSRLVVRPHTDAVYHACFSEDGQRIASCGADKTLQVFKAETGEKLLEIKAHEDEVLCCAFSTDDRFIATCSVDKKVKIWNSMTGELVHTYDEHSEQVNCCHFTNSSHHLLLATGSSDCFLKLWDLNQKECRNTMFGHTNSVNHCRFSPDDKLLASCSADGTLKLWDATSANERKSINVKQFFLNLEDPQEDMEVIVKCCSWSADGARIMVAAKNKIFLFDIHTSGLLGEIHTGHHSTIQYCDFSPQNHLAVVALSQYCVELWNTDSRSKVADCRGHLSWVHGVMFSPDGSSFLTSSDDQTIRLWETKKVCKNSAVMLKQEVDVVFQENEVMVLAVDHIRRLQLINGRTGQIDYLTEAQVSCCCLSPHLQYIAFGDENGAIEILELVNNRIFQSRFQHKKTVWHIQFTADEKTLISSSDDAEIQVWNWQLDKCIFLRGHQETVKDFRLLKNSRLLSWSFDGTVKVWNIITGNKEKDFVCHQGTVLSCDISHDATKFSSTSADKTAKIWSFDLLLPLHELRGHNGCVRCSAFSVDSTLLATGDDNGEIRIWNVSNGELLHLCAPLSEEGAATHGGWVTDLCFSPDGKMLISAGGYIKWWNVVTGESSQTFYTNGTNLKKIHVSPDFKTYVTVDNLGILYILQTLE
# [22] = molecular target: T5, Mannose-6-phosphate isomerase (Homo sapiens, UniProt P34949); test: MPI inhibition at elevated mannose 6-phosphate – biochemical, fluorescence intensity, high mannose 6-phosphate, primary screen (AID 1220)
# T5 sequence (P34949 whole entry): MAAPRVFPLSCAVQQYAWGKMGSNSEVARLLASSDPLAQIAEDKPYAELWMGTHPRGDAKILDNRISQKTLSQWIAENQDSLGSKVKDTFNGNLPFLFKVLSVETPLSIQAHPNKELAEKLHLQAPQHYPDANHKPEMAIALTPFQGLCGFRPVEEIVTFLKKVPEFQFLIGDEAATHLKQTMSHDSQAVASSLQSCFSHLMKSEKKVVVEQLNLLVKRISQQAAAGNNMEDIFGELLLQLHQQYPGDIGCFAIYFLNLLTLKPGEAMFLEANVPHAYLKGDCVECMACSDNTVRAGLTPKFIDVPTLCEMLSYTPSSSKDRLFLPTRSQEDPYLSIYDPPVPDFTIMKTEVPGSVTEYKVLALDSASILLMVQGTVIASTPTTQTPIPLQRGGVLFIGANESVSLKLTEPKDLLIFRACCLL
# Chain of Genome polyprotein (P29990 2492-3391 limits assumed): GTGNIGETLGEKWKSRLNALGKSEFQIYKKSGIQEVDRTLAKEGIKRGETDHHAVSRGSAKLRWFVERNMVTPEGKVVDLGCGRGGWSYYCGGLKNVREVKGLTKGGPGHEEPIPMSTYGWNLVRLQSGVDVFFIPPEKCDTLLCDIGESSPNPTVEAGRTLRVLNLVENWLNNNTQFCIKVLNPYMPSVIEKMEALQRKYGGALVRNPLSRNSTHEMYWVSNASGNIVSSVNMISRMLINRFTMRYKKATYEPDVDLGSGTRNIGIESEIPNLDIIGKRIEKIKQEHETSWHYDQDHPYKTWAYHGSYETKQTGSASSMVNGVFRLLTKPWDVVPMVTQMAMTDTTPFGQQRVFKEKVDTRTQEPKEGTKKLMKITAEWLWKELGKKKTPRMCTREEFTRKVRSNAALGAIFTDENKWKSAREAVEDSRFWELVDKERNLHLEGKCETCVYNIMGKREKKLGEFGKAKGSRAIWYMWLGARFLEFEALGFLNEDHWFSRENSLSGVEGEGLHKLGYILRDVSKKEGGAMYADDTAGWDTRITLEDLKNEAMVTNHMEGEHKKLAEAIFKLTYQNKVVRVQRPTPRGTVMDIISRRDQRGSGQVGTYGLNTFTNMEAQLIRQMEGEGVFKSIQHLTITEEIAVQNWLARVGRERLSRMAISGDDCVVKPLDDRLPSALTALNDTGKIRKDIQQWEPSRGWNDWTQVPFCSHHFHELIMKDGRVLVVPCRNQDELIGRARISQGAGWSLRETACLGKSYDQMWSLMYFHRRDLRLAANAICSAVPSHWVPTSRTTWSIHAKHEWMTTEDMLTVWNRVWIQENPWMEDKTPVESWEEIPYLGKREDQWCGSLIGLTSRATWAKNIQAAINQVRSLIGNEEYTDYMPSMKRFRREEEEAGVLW
structure (smiles),measurement,setting,value
O=C(O)C1=CC[C@@H](c2ccc(Cl)cc2)N(S(=O)(=O)c2ccc(Cl)cc2)[C@H]1c1ccc(Br)cc1,IC50,[1],36.5 µM (active)
same,CC50,[2],> 40 µM (active)
CCOC(=O)COc1cc(Br)c(/C=N/Nc2ccccc2)cc1OC,IC50,[3],16.4 µM (inactive)
same,IC50,[4],> 138 µM (inactive)
CC(C)c1nc(SCC(=O)Nc2nc3c(s2)CCCC3)c2ccccc2n1,IC50,[3],5.97 µM (active)
same,IC50,[4],> 138 µM (inactive)
c1ccc2c(c1)OCC(CNc1[nH]cnc3ncnc1-3)O2 (stereo not drawn),AC50,[5],7.15 µM (active)
same,AC50,[6],2.64 µM (active)
CCOc1ccc(C(=O)C2=C(O)C(=O)N(c3ccccn3)C2c2ccc(F)cc2)c(C)c1 (stereo not drawn),IC50,[3],13 µM (inactive)
same,IC50,[4],> 138 µM (inactive)
Cc1ccc(S(=O)(=O)N2[C@@H](c3cccc(Cl)c3)C(C(=O)O)=CC[C@H]2c2ccc(Cl)c(Cl)c2)cc1,IC50,[1],57.9 µM (active)
same,CC50,[2],> 40 µM (active)
Nc1cc(N)c(OCC(F)(F)F)cc1OCC(F)(F)F,AC50,[7],7.43 µM (active)
same,EC50,[8],4.82 µM (active)
same,IC50,[9],32.7 µM (inactive)
CC(=O)Nc1nnc(SCC(=O)NCC2CCCO2)s1 (stereo not drawn),IC50,[10],38.6 µM (active)
same,IC50,[11],22.5 µM (active)
CC[N+](CC)(CC)CCOc1ccc(/C=C/c2ccccc2)cc1 [STILONIUM IODIDE],IC50,[10],2.33 µM (active)
same,IC50,[12],20.2 µM (active)
same,IC50,[11],2.57 µM (active)
COc1ccc(NC(=O)Nc2ccc3c(c2)C(=O)N([C@H](C)CO)C[C@H](C)[C@H](CN(C)CC2CC2)OCCCC[C@H](C)O3)cc1,AC50,[5],26.5 µM (active)
same,AC50,[6],23.5 µM (active)
same,AC50,[13],25.9 µM (active)
O=C1C=C(O)CC(c2ccco2)C1 (stereo not drawn),IC50,[10],14 µM (active)
same,IC50,[11],37.5 µM (active)
CCCCOC(=O)Nc1ccc(N(C)C)cc1,IC50,[14],0.473 µM (not active)
same,IC50,[15],5.43 µM (active)
COc1ccc(C(=O)CC(Sc2ccccc2N)c2ccc(OC)cc2)cc1 (stereo not drawn),AC50,[16],> 52 µM (inactive)
same,AC50,[17],28.7 µM (active)
same,AC50,[18],48.4 µM (active)
O=C(CSc1n[nH]c(-c2ccncc2)n1)Nc1ccc(Cl)c(Cl)c1,IC50,[10],8.81 µM (active)
same,IC50,[11],9.18 µM (active)
C[C@H](CO)N1C[C@H](C)[C@H](CN(C)Cc2cccnc2)OCc2ccccc2-c2c(n(C)c3ccccc23)C1=O,AC50,[5],1.21 µM (active)
same,AC50,[6],0.805 µM (active)
same,AC50,[13],15.6 µM (active)
O=C(COc1ccccc1F)OCC(=O)c1ccc([N+](=O)[O-])cc1,IC50,[9],> 80 µM (inactive)
O=[N+]([O-])c1ccc(N/N=C/c2ccc(O)c(O)c2O)c(S(=O)(=O)N2CCOCC2)c1,EC50,[19],24.9 µM (active)
same,IC50,[1],4.6 µM (active)
same,EC50,[20],> 38 µM (not active)
same,IC50,[21],21.4 µM (active)
same,IC50,[14],2.98 µM (active)
same,IC50,[22],> 50 µM (not active)
same,IC50,[9],55.6 µM (inactive)
